O=P(Oc1ccccc1)(Oc1ccccc1)N1CCN(P(=O)(Oc2ccccc2)Oc2ccccc2)CC1
solubility (mole fraction)
Conditions | in THF | in acetone | in benzene | in chloroform | in dichloromethane | in ethanol | in ethyl acetate | in methanol | in toluene
288.15 K | – | – | – | – | 0.00585 | – | – | – | –
293.15 K | 0.00109 | 0.000424 | 0.00268 | 0.0132 | 0.00725 | 0.000495 | 0.000826 | 3.28e-05 | 0.000506
298.15 K | 0.00143 | 0.000489 | 0.00319 | 0.0146 | 0.00878 | 0.000613 | 0.00103 | 5.77e-05 | 0.000616
303.15 K | 0.00183 | 0.000559 | 0.00385 | 0.0162 | 0.0106 | 0.000746 | 0.00122 | 9.84e-05 | 0.000782
308.15 K | 0.00236 | 0.000631 | 0.00458 | 0.0183 | 0.013 | 0.000946 | 0.00158 | 0.000156 | 0.000986
313.15 K | 0.00301 | 0.000717 | 0.00549 | 0.0202 | – | 0.00113 | 0.00194 | 0.000251 | 0.00124
318.15 K | 0.00375 | 0.000795 | 0.00632 | 0.0223 | – | 0.00134 | 0.00242 | 0.000415 | 0.00148
323.15 K | 0.00493 | 0.000901 | 0.00724 | 0.0245 | – | 0.00158 | 0.00301 | 0.000656 | 0.00178
328.15 K | 0.00605 | – | 0.00834 | – | – | 0.00186 | 0.0036 | – | 0.00213
333.15 K | 0.00766 | – | 0.00972 | – | – | 0.00221 | 0.00437 | – | 0.00251
338.15 K | – | – | 0.0112 | – | – | 0.00269 | 0.00521 | – | 0.00313
343.15 K | – | – | 0.0129 | – | – | 0.0032 | 0.00614 | – | 0.00371

Source: BigSolDB 2.1
